Assays:
[1] = system: T1, C118 (GST-C118), alpha-L-rhamnosidase; assay: product (Rg1) quantified, Michaelis-Menten fit; assay type: biochemical, Bifidobacterium sp.; conditions: pH 6.0, 45 °C; Re 0.25-10.0 mg/mL; enzyme 0.62 mg/mL
T1 construct: E. coli BL21(DE3); GH78 subfamily II; EC 3.2.1.40; predicted catalytic residues Glu478, Asp472, also W541, W600, L597, W532
Text: product (Rg1) quantified, Michaelis-Menten fit on C118 (GST-C118), alpha-L-rhamnosidase

BD890 (Bd890, BdRham) = biological target: T2, BD890 (Bd890, BdRham) (Bifidobacterium dentium, UniProt D2Q797); assay: conversion of Re to Rg1 in PPT-type ginsenoside mixture; assay type: biochemical; conditions: cell lysate, 45 °C, Re 2.25 mg/mL in ginsenoside mixture
T2 construct: gene BDP_0161; GST-tag vector pBT7 (same expression system as C118), E. coli BL21(DE3), used as cell lysate; GH78
T2 sequence (D2Q797 1-890): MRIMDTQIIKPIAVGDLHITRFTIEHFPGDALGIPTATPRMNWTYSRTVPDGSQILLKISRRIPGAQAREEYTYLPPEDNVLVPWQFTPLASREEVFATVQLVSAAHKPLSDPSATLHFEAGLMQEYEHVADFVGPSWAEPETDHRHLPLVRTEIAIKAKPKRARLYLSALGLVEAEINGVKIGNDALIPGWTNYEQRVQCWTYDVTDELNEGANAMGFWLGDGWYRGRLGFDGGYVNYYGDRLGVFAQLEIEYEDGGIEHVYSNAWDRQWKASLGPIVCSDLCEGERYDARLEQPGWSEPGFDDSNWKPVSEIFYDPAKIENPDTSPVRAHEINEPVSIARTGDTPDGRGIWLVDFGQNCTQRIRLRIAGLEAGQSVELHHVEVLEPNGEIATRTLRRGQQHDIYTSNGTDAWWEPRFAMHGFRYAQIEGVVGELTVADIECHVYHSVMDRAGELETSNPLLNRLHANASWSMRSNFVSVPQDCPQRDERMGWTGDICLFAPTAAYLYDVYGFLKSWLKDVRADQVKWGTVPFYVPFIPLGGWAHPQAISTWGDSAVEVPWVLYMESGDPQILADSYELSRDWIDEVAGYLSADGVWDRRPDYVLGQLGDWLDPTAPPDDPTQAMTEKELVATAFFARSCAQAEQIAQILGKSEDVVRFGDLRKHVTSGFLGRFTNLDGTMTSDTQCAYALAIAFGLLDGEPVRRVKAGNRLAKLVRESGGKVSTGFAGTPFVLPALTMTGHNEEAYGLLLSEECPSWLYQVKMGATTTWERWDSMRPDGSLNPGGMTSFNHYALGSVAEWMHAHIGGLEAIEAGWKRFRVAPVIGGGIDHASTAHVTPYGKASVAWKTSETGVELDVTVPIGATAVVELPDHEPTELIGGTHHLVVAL

[2] = system: T1, C118 (GST-C118), alpha-L-rhamnosidase; assay: p-nitrophenol release, Michaelis-Menten fit; assay type: biochemical, Bifidobacterium sp.; conditions: pH 6.0, 45 °C; pNPR 0.1-5.0 mM; enzyme 0.62 mg/mL
Text: p-nitrophenol release, Michaelis-Menten fit on C118 (GST-C118), alpha-L-rhamnosidase

| Structure (SMILES) | Km [1] | % conversion after 12 h (BD890 (Bd890, BdRham)) | Km [2] |
| --- | --- | --- | --- |
| CC(C)=CCC[C@](C)(O[C@@H]1O[C@H](CO)[C@@H](O)[C@H](O)[C@H]1O)[C@H]1CC[C@]2(C)[C@@H]1[C@H](O)C[C@@H]1[C@@]3(C)CC[C@H](O)C(C)(C)[C@@H]3[C@@H](O[C@@H]3O[C@H](CO)[C@@H](O)[C@H](O)[C@H]3O[C@@H]3O[C@@H](C)[C@H](O)[C@@H](O)[C@H]3O)C[C@]12C [Ginsenoside Re] | 544 µM | 54% | – |
| C[C@@H]1O[C@@H](Oc2ccc([N+](=O)[O-])cc2)[C@H](O)[C@H](O)[C@H]1O [p-nitrophenyl-α-L-rhamnopyranoside] | – | – | 2030 µM |
